# Laboratory results taken from patent publication US20230322722A1, “MODULATORS OF MYC FAMILY PROTO-ONCOGENE PROTEIN” (Nalo Therapeutics, priority 2020, published 2023).
# Columns and labels:
# [1] = target: T1, MycC protein (c-myc) (Homo sapiens, UniProt P01106); assay: Degradation of MycC protein, 24 h treatment, JESS Western, L363 cells (Example 161); format: cell-based; details: L-363 cells
# T1 construct: either 2×10^6 of L-363 (human leukemia cell line) cells; endogenous in cells; host or cells: L-363 / L363 human leukemia cells
# T1 sequence (P01106 whole entry): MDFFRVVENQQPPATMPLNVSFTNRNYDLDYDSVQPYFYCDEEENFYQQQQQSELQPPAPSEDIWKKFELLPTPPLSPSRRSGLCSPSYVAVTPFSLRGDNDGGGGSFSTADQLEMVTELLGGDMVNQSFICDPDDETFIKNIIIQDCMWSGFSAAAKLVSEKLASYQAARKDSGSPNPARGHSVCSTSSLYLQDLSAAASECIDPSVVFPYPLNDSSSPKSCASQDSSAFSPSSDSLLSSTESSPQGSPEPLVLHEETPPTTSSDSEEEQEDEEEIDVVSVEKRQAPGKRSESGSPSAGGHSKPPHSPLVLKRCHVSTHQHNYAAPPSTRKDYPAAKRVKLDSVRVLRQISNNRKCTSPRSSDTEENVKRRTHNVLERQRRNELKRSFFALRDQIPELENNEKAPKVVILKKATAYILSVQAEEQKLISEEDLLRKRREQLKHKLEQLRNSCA
# Protocol: (§1) For L363 cells (suspension), 1E6 cells were plated into each well of a 6 well plate. For SK-N-BE(2) cells (adherent), 5E5 cells were plated into each well of a 6 well dish. […] All compounds were diluted to 10 mM in DMSO. Cells were treated with the compound for 24 hrs, then for both cell types, media containing cells were removed from wells into a 15 ml centrifuge tube, and remaining adherent SK-N-BE(2) cells were also scraped from the wells into the appropriate tubes. Tubes were centrifuged, cells were washed with PBS then re-centrifuged to pellet cells. A RIPA buffer cocktail was added to the cells on ice for 5 mins. Cell lysates were clarified by centrifugation and stored at −80 degrees until required. BCA assay was performed on each lysate to determine the protein concentration.
# (§2) For validation studies of antibodies, lysates and antibodies were used at a number of concentrations (Lysates: 2, 1, 0.2 mg/ml; Antibodies: 1 in 50, 1 in 200 dilution). Once an appropriate lysate concentration and antibody concentration was determined, samples were screened in the JESS technology (Protein Simple, San Jose, CA—https://www.proteinsimple.com/jess.html).
# (§3) Target protein antibodies (n-myc and c-myc) were detected in the chemi-luminescence channel and loading controls (tubulin and GAPDH) were detected using a Near Infra Red (NIR) labeled secondary antibody.
# (§4) For SK-N-EB2 adherent cells, 5E5 cells in 1.9 mls media were plated into 6 well dishes and incubated for 24 hrs. […] Cells were scrapped off the plate, centrifuged, washed with PBS, centrifuged, then a RIPA buffer cocktail added to the cells (100 ul), centrifuged and stored at −80 for later analysis. For L363 suspension cells, 1E6 cells were plated into […] (950 ul media) and incubated for 24 hrs. […] Cells were aspirated into tubes, centrifuged, washed with PBS, centrifuged, then a RIPA buffer cocktail added to the cells (100 ul), centrifuged and stored at −80 for later analysis.
# (§5) For Western blot, a BCA (total protein) assay was run on all samples, these were then run in batches of 5 compounds plus control (DMSO) on each Western blot run—n-myc and c-myc were run in separate experiments in the chemiluminescence channel. Both tubulin and GAPDH were run as loading controls in all lanes in the near infra red channel.
# [2] = target: T2, MycN protein (n-myc) (Homo sapiens, UniProt P04198); assay: Degradation of MycN protein, 24 h treatment, JESS Western, SK-N-BE(2) cells (Example 161); format: cell-based; details: SKNBE2 cells
# T2 construct: either 2×10^6 of L-363 (human leukemia cell line) or SKNBE2 (neuroblastoma cell line) cells; endogenous in cells; host or cells: SKNBE2 / SK-N-BE(2) neuroblastoma cells
# T2 sequence (P04198 1-464): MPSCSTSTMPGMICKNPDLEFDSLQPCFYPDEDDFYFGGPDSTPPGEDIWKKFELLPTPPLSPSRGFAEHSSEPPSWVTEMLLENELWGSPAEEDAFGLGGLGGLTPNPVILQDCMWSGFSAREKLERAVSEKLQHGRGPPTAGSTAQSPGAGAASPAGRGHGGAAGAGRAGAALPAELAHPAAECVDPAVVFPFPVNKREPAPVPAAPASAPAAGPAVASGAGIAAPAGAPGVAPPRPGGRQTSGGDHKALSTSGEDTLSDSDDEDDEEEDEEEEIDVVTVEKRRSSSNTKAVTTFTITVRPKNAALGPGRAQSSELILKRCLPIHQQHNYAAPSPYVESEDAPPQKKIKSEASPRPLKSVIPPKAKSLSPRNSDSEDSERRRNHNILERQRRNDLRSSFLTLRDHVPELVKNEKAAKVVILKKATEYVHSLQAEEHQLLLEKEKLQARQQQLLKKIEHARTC
# Protocol: as §1, §2, §3, §4, §5
inhibition at 0.5 µM [1],inhibition at 1 µM [1],inhibition at 3 µM [1],inhibition at 6 µM [1],inhibition at 0.5 µM [2],inhibition at 1 µM [2],inhibition at 3 µM [2],inhibition at 6 µM [2],Compound
< 20%,20 to 49%,50 to 79%,80 to 100%,20 to 49%,20 to 49%,–,< 20%,"CN(c1nccc(Nc2cc(C3CC3)[nH]n2)n1)C1CC2(C1)CN(Cc1cccc(OC(F)(F)F)c1)C2 [Compound 27, N4-(5-Cyclopropyl-1H-pyrazol-3-yl)-N2-methyl-N2-(2-(3-(trifluoromethoxy)benzyl)-2-azaspiro[3.3]heptan-6-yl)pyrimidine-2,4-diamine]"
–,–,80 to 100%,80 to 100%,–,–,–,20 to 49%,"CN(c1nccc(Nc2cc(C3CC3)[nH]n2)n1)C1CC2(C1)CN(Cc1cccc(S(C)(=O)=O)c1)C2 [Compound 28, N4-(5-Cyclopropyl-1H-pyrazol-3-yl)-N2-methyl-N2-(2-(3-(methylsulfonyl)benzyl)-2-azaspiro[3.3]heptan-6-yl)pyrimidine-2,4-diamine]"
50 to 79%,80 to 100%,80 to 100%,80 to 100%,20 to 49%,20 to 49%,50 to 79%,80 to 100%,"CN(c1nccc(Nc2cc(C3CC3)[nH]n2)n1)C1CC2(C1)CN(CCCc1nc3ccccc3o1)C2 [Compound 29, N2-(2-(3-(Benzo[d]oxazol-2-yl)propyl)-2-azaspiro[3.3]heptan-6-yl)-N4-(5-cyclopropyl-1H-pyrazol-3-yl)-N2-methylpyrimidine-2,4-diamine]"
–,80 to 100%,80 to 100%,80 to 100%,20 to 49%,50 to 79%,80 to 100%,80 to 100%,"CN(c1nccc(Nc2cc(C3CC3)[nH]n2)n1)C1CC2(C1)CN(C(=O)c1cn(C)nn1)C2 [Compound 31, (6-((4-((5-Cyclopropyl-1H-pyrazol-3-yl)amino)pyrimidin-2-yl)(methyl)amino)-2-azaspiro[3.3]heptan-2-yl)(1-methyl-1H-1,2,3-triazol-4-yl)methanone]"
–,–,80 to 100%,80 to 100%,–,–,80 to 100%,80 to 100%,"CN(c1nccc(Nc2cc(C3CC3)[nH]n2)n1)C1CC2(C1)CN(C(=O)C1CCOCC1)C2 [Compound 32, (6-((4-((5-Cyclopropyl-1H-pyrazol-3-yl)amino)pyrimidin-2-yl)(methyl)amino)-2 azaspiro[3.3]heptan-2-yl)(tetrahydro-2H-pyran-4-yl)methanone]"
–,–,80 to 100%,80 to 100%,–,–,–,80 to 100%,"Cc1nnsc1C(=O)N1CC2(CC(N(C)c3nccc(Nc4cc(C5CC5)[nH]n4)n3)C2)C1 [Compound 33, (6-((4-((5-Cyclopropyl-1H-pyrazol-3-yl)amino)pyrimidin-2-yl)(methyl)amino)-2-azaspiro[3.3]heptan-2-yl)(4-methyl-1,2,3-thiadiazol-5-yl)methanone]"
–,–,< 20%,80 to 100%,< 20%,< 20%,80 to 100%,80 to 100%,"CN(c1nccc(Nc2cc(C3CC3)[nH]n2)n1)C1CC2(C1)CN(C(=O)c1cccc(C(F)(F)F)c1)C2 [Compound 34, (6-((4-((5-Cyclopropyl-1H-pyrazol-3-yl)amino)pyrimidin-2-yl)(methyl)amino)-2 azaspiro[3.3]heptan-2-yl)(3-(trifluoromethyl)phenyl)methanone]"
20 to 49%,50 to 79%,80 to 100%,80 to 100%,< 20%,20 to 49%,50 to 79%,80 to 100%,"CN(c1nccc(Nc2cc(C3CC3)[nH]n2)n1)C1CC2(C1)CN(S(=O)(=O)c1cnn(C)c1)C2 [Compound 35, N4-(5-Cyclopropyl-1H-pyrazol-3-yl)-N2-methyl-N2-{2-[(1-methyl-1H-pyrazol-4-yl)sulfonyl]-2-azaspiro[3.3]heptan-6-yl}pyrimidine-2,4-diamine]"

# The next lines start with the molecule.
Compound,inhibition at 0.5 µM [1],inhibition at 1 µM [1],inhibition at 3 µM [1],inhibition at 6 µM [1],inhibition at 0.5 µM [2],inhibition at 1 µM [2],inhibition at 3 µM [2],inhibition at 6 µM [2]
"CN1CC2(CC(Nc3nccc(Nc4cc(C5CC5)[nH]n4)n3)C2)C1 [Compound 16, N4-(5-Cyclopropyl-1H-pyrazol-3-yl)-N2-(2-methyl-2-azaspiro[3.3]heptan-6-yl)pyrimidine-2,4-diamine]",50 to 79%,80 to 100%,80 to 100%,80 to 100%,20 to 49%,20 to 49%,80 to 100%,80 to 100%
"CN(c1nccc(Nc2cc(C3CCCC3)[nH]n2)n1)C1CCN(C2CC2)CC1 [Compound 17, N4-(5-Cyclopentyl-1H-pyrazol-3-yl)-N2-(1-cyclopropylpiperidin-4-yl)-N2-methylpyrimidine-2,4-diamine]",–,80 to 100%,80 to 100%,80 to 100%,< 20%,20 to 49%,80 to 100%,80 to 100%
"CN(c1nccc(Nc2cc(C3CCCC3)[nH]n2)n1)C1CCNCC1 [Compound 18, N4-(5-Cyclopentyl-1H-pyrazol-3-yl)-N2-methyl-N2-(piperidin-4-yl)pyrimidine-2,4-diamine]",–,80 to 100%,80 to 100%,80 to 100%,–,20 to 49%,80 to 100%,80 to 100%
"CN(c1nccc(Nc2cc(C3CC3)[nH]n2)n1)C1CC2(C1)CN(CC1CCOCC1)C2 [Compound 20, N4-(5-Cyclopropyl-1H-pyrazol-3-yl)-N2-methyl-N2-{2-[(oxan-4-yl)methyl]-2-azaspiro[3.3]heptan-6-yl}pyrimidine-2,4-diamine]",–,–,–,80 to 100%,–,–,20 to 49%,50 to 79%
"CN(c1nccc(Nc2cc(C3CC3)[nH]n2)n1)C1CC2(C1)CN(CC1CC1)C2 [Compound 21, N4-(5-Cyclopropyl-1H-pyrazol-3-yl)-N2-(2-(cyclopropylmethyl)-2-azaspiro[3.3]heptan-6-yl)-N2-methylpyrimidine-2,4-diamine]",–,< 20%,50 to 79%,80 to 100%,< 20%,20 to 49%,20 to 49%,50 to 79%
"CN(c1nccc(Nc2cc(C3CC3)[nH]n2)n1)C1CC2(C1)CN(CC(=O)Nc1cccc(S(C)(=O)=O)c1)C2 [Compound 23, 2-(6-((4-((5-Cyclopropyl-1H-pyrazol-3-yl)amino)pyrimidin-2-yl)(methyl)amino)-2-azaspiro[3.3]heptan-2-yl)-N-(3-(methylsulfonyl)phenyl)acetamide]",< 20%,50 to 79%,80 to 100%,80 to 100%,–,–,–,80 to 100%
"CN(c1nccc(Nc2cc(C3CC3)[nH]n2)n1)C1CC2(C1)CN(Cc1ccccc1F)C2 [Compound 25, N4-(5-Cyclopropyl-1H-pyrazol-3-yl)-N2-(2-(2-fluorobenzyl)-2-azaspiro[3.3]heptan-6-yl)-N2-methylpyrimidine-2,4-diamine]",20 to 49%,20 to 49%,–,–,–,–,< 20%,< 20%
"CN(c1nccc(Nc2cc(C3CC3)[nH]n2)n1)C1CC2(C1)CN(Cc1cc(F)cc(F)c1)C2 [Compound 26, N4-(5-Cyclopropyl-1H-pyrazol-3-yl)-N2-(2-(3,5-difluorobenzyl)-2-azaspiro[3.3]heptan-6-yl)-N2-methylpyrimidine-2,4-diamine]",–,< 20%,< 20%,80 to 100%,–,< 20%,–,20 to 49%
